According to the supplement of paper PMC4862054:

Legend:
Conditions in all cases: incubation time: 72 h
CAL-51 [1] = test: normalised response (% of control), CellTiter-Glo; higher = more viable cells (100 = DMSO, 0 = benzethonium chloride kill control)
Outline: (§1)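 Each value is the plate-normalised signal at one concentration of the series. Breast cancer cell lines (20 µl suspension) were incubated 72 h in 384-well plates with compound at 5 concentrations in 10-fold steps over a compound-specific 10,000-fold range. CellTox Green and then CellTiter-Glo were read, and each plate was scaled to 0.1 % DMSO (100) and a positive kill control (0).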

BT-474 [2] = test: as above
Outline: as §1

HDQ-P1 [3] = test: as above
Outline: as §1

BT-549 [4] = test: as above
Outline: as §1

DU-4475 [5] = test: as above
Outline: as §1

MFM-223 [6] = test: as above
Outline: as §1

MDA-MB-231 [7] = test: as above
Outline: as §1

MDA-MB-468 [8] = test: as above
Outline: as §1

MDA-MB-453 [9] = test: as above
Outline: as §1

CAL-120 [10] = test: as above
Outline: as §1

HCC1599 [11] = test: as above
Outline: as §1

MDA-MB-436 [12] = test: as above
Outline: as §1

CAL-85-1 [13] = test: as above
Outline: as §1

CAL-148 [14] = test: as above
Outline: as §1

MCF-10A [15] = test: as above
Outline: as §1

SK-BR-3 = test: as above
Outline: as §1

Hs578T [16] = test: as above
Outline: as §1

HCC1143 [17] = test: as above
Outline: as §1

HCC1937 [18] = test: as above
Outline: as §1

CAL-51 [19] = test: normalised response (% of control), CellTox Green; higher = less cell death (100 = DMSO, 0 = benzethonium chloride kill control)
Outline: as §1

BT-474 [20] = test: as above
Outline: as §1

HDQ-P1 [21] = test: as above
Outline: as §1

BT-549 [22] = test: as above
Outline: as §1

DU-4475 [23] = test: as above
Outline: as §1

MFM-223 [24] = test: as above
Outline: as §1

MDA-MB-231 [25] = test: as above
Outline: as §1

MDA-MB-468 [26] = test: as above
Outline: as §1

MDA-MB-453 [27] = test: as above
Outline: as §1

CAL-120 [28] = test: as above
Outline: as §1

HCC1599 [29] = test: as above
Outline: as §1

CAL-85-1 [30] = test: as above
Outline: as §1

CAL-148 [31] = test: as above
Outline: as §1

MCF-10A [32] = test: as above
Outline: as §1

Hs578T [33] = test: as above
Outline: as §1

HCC1143 [34] = test: as above
Outline: as §1

HCC1937 [35] = test: as above
Outline: as §1

MDA-MB-436 [36] = test: as above
Outline: as §1

SMILES | normalised response (CAL-51 [1]) [%] | normalised response (BT-474 [2]) [%] | normalised response (HDQ-P1 [3]) [%] | normalised response (BT-549 [4]) [%] | normalised response (DU-4475 [5]) [%] | normalised response (MFM-223 [6]) [%] | normalised response (MDA-MB-231 [7]) [%] | normalised response (MDA-MB-468 [8]) [%] | normalised response (MDA-MB-453 [9]) [%] | normalised response (CAL-120 [10]) [%] | normalised response (HCC1599 [11]) [%] | normalised response (MDA-MB-436 [12]) [%] | normalised response (CAL-85-1 [13]) [%] | normalised response (CAL-148 [14]) [%] | normalised response (MCF-10A [15]) [%] | normalised response (SK-BR-3) [%] | normalised response (Hs578T [16]) [%] | normalised response (HCC1143 [17]) [%] | normalised response (HCC1937 [18]) [%] | normalised response (CAL-51 [19]) [%] | normalised response (BT-474 [20]) [%] | normalised response (HDQ-P1 [21]) [%] | normalised response (BT-549 [22]) [%] | normalised response (DU-4475 [23]) [%] | normalised response (MFM-223 [24]) [%] | normalised response (MDA-MB-231 [25]) [%] | normalised response (MDA-MB-468 [26]) [%] | normalised response (MDA-MB-453 [27]) [%] | normalised response (CAL-120 [28]) [%] | normalised response (HCC1599 [29]) [%] | normalised response (CAL-85-1 [30]) [%] | normalised response (CAL-148 [31]) [%] | normalised response (MCF-10A [32]) [%] | normalised response (Hs578T [33]) [%] | normalised response (HCC1143 [34]) [%] | normalised response (HCC1937 [35]) [%] | normalised response (MDA-MB-436 [36]) [%]
CN(C)CCN1C(=O)c2cccc3cc(N)cc(c23)C1=O [Amonafide] (1000 nM) | 113 | 87.5 | 102 | 97.2 | 87.1 | 101 | 95.6 | 91.6 | 107 | 96.2 | 106 | 95.2 | 93.6 | 87.2 | 92.2 | 89.5 | 93.6 | 97.6 | 89.9 | 106 | 99.3 | 106 | 130 | 96.7 | 97.3 | 122 | 52 | 106 | 98.9 | 102 | 100 | 93.9 | 100 | 113 | 100 | 116 | –
CN(C)C[C@@H]1CCn2cc(c3ccccc32)C2=C(C(=O)NC2=O)c2cn(c3ccccc23)CCO1 [Ruboxistaurin] (1000 nM) | 93 | 87.3 | 85.8 | 91.1 | 80.7 | 86.8 | 92.6 | 73.8 | 96.1 | 83.7 | 111 | 92.2 | 103 | 76.6 | 86.1 | 87.7 | 104 | 90 | 86 | 78.1 | – | 98.5 | 106 | 100 | 79.2 | 97.2 | 122 | 95.9 | 98.7 | 95 | 111 | 55 | 103 | – | 109 | 104 | 106
Nc1nc(OCc2cc(Br)cs2)c2[nH]cnc2n1 [Lomeguatrib] (1000 nM) | 103 | 103 | 102 | 96.6 | 102 | 104 | 103 | 100 | 105 | 96.6 | 118 | 97.6 | 104 | 99.3 | 104 | 103 | 102 | 101 | 97.8 | 104 | 100 | 112 | 108 | 101 | 82.9 | 104 | 139 | 103 | 102 | 93.2 | 98.9 | 99.9 | 93.5 | 100 | 117 | 111 | –
Cc1ccc(NC(=O)c2ccc(CN3CCN(C)CC3)cc2)cc1Nc1nccc(-c2cccnc2)n1 [Imatinib] (1000 nM) | 96.3 | 102 | 101 | 106 | 105 | 104 | 106 | 99.9 | 111 | 108 | 101 | 102 | 104 | 103 | 111 | 105 | 105 | 99.2 | 93.6 | 103 | 98.8 | – | 121 | 101 | 105 | 107 | 137 | 103 | 106 | 104 | 110 | 101 | 101 | 104 | 113 | – | –
c1ccc([C@H]2CN3CCSC3=N2)cc1 [Levamisole] (1000 nM) | 73.4 | 100 | 106 | 100 | 99.2 | 105 | 104 | 110 | 105 | 101 | 98.4 | 104 | 104 | 103 | 109 | 113 | 101 | 109 | 99.6 | 103 | 102 | 75.4 | 120 | 106 | 102 | 117 | 68.7 | 96.9 | 100 | 104 | 107 | 107 | 113 | – | 101 | 108 | 85
CCCCCCCCc1ccc(CCC(N)(CO)CO)cc1 [Fingolimod] (1000 nM) | 80.5 | 94.6 | 103 | 99.3 | 100 | 107 | 94.3 | 98.1 | 102 | 96.1 | 114 | 103 | 103 | 101 | 103 | 102 | 99.9 | 101 | 103 | 106 | 103 | 89 | 131 | 103 | 102 | 122 | 160 | 103 | 99.4 | 106 | 101 | 107 | 57.9 | 106 | 111 | – | 90.6
O=C1NC(=O)[C@@H](c2cn3c4c(cccc24)CCC3)[C@@H]1c1c[nH]c2ccccc12 [Tivantinib] (100 nM) | 115 | 106 | 105 | 92.4 | 96.5 | 99 | 99.2 | 96.1 | 77.3 | 103 | 127 | 98 | 89.5 | 96.9 | 97.7 | 92 | 94.6 | 93.9 | 94.6 | 103 | 94.2 | – | 106 | 98.7 | 89.4 | 110 | 116 | 104 | 97.9 | 85.6 | 93.4 | – | 113 | 75 | 60.7 | 100 | 91.5
CC[C@]1(O)C[C@H]2CN(CCc3c([nH]c4ccccc34)[C@@](C(=O)OC)(c3cc4c(cc3OC)N(C=O)[C@H]3[C@@](O)(C(=O)OC)[C@H](OC(C)=O)[C@]5(CC)C=CCN6CC[C@]43[C@@H]65)C2)C1 [Vincristine] (0.1 nM) | 88.2 | 97.8 | 99.9 | 99.5 | 106 | 102 | 104 | 112 | 107 | 94.7 | 92.7 | 116 | 99.1 | 109 | 105 | 102 | 110 | 103 | 94.1 | – | – | – | – | – | – | – | – | – | – | – | – | – | – | – | – | – | –
C[C@]12CC[C@H](O)CC1=CC[C@@H]1[C@@H]2CC[C@]2(C)C(c3cccnc3)=CC[C@@H]12 [Abiraterone] (5 nM) | 136 | 107 | 99.5 | 95.6 | 109 | 97.5 | 106 | 99 | 116 | 95.7 | 116 | 103 | 110 | 91.8 | 102 | 111 | 104 | 101 | 94.6 | – | – | – | – | – | – | – | – | – | – | – | – | – | – | – | – | – | –
CC(C)(C#N)c1cc(Cn2cncn2)cc(C(C)(C)C#N)c1 [Anastrozole] (10 nM) | 93.7 | 101 | 94.3 | 99 | 104 | 104 | 100 | 98.8 | 104 | 96.2 | 102 | 99.4 | 94.9 | 99.3 | 110 | 105 | 105 | 103 | 100 | – | – | – | – | – | – | – | – | – | – | – | – | – | – | – | – | – | –
c1ccc([C@H]2CN3CCSC3=N2)cc1 [Levamisole] (10 nM) | 78.9 | 106 | 97 | 99 | 103 | 110 | 99.3 | 102 | 117 | 100 | 99.5 | 106 | 95.6 | 114 | 110 | 95.1 | 105 | 99.5 | 103 | – | – | – | – | – | – | – | – | – | – | – | – | – | – | – | – | – | –
